Reference: US20210290553A1, “HC-1119 FORMULATION, PREPARATION METHOD AND USE THEREOF” (HINOVA PHARMACEUTICALS INC., priority 2018, published 2021)
Read-outs that look alike come from different tables or passages of the source.

Legend:
[1] = 160 mg QD 49 days, cited from earlier work
[2] = Permeability evaluated by Caco-2 cell model; type: in vitro ADME; settings: human; 10 μM HC-1119, Caco-2 cell model; read-out: apparent permeability coefficient
Text: (§1) Therefore, HC-1119 is an insoluble drug with high permeability, and belongs to the second category of BSC classification, and thus it is extremely important to improve the bioavailability thereof.

[3] = Physical and chemical properties: solubility in water; type: physicochemical
Text: as §1

[4] = Clinical pharmacokinetic test of HC-1119 soft capsule; type: in vivo; settings: human, plasma, oral, HC-1119 80 mg, day 84
Experimental: (1) Dosage: 80 mg/day (2 soft capsules of 40 mg)
(2) Administration way: continuous administration, once a day, the first administration being orally taken with empty stomach, thereafter no restriction on diet.
In the pharmacokinetic study, 9 subjects participated in this study.
The drug was taken by the subjects with empty stomach on the first day of the test, and 0˜0.5 h before taking the drug as well as 0.5 h, 0.75 h, 1 h, 2 h (±5 min), 4 h, 8 h, 12 h (±15 min), 24 h (±30 min) before administration on the second day), blood samples were collected, and 3 mL venous blood was drawn at each time point, then placed in an anticoagulant tube (the type of anticoagulant was determined according to the established analytical method).
0˜0.5 h before administration on day 7, 21, 35, 42, 56, 70, and 84 of continuous dosing, as well as 0.5 h, 0.75 h, 1 h, 2 h (±5 min), 4 h, 8 h, 12 h (±15 min), 24 h (±30 min, before administration on day 85) after administration on day 84, 3 mL venous blood was collected at each time point and placed in an anticoagulant tube (the type of anticoagulant was determined according to the established analytical method).
The sample should be centrifuged as soon as possible (about 3000 rpm, 10 min) to separate the plasma. The separated plasma samples need to be stored in two parts in a plasma cryotube. […]

Structure (SMILES)	AUCtau ([1]; Median) [µg·h/mL]	CL/F ([1]; Median) [L/h]	Cmax ([1]; Median) [µg/mL]	Cmin ([1]; Median) [µg/mL]	tmax ([1]; Median) [min]	AUCtau ([1]; Min-Max) [µg·h/mL]	Cmax ([1]; Min-Max) [µg/mL]	Cmin ([1]; Min-Max) [µg/mL]	tmax ([1]; Min-Max) [min]	AUCtau ([1]; mean values) [µg·h/mL]	CL/F ([1]; mean values) [L/h]	Cmax ([1]; mean values) [µg/mL]	Cmin ([1]; mean values) [µg/mL]	Cmin ([1]; mean values, listed as enzalutamide) [µg/mL]	Papp at 10 μM [2] [×10⁻⁶ cm/s]	solubility in water [3]	AUC at 84 day ([4]; read-out: steady-state AUC on day 84) [µg·h/mL]	concentration at 84 day ([4]; read-out: steady-state Ctrough on day 84) [ng/mL]
CNC(=O)c1ccc(N2C(=S)N(c3ccc(C#N)c(C(F)(F)F)c3)C(=O)C2(C)C)cc1F [Enzalutamide, enzalutamide]	295.6	0.541	15.55	11.45	61.2	240 to 593	11.8 to 28.0	6.92 to 22.4	31.2 to 181	321.5	0.520	16.59	12.00	12				
[2H]C([2H])([2H])NC(=O)c1ccc(N2C(=S)N(c3ccc(C#N)c(C(F)(F)F)c3)C(=O)C2(C)C)cc1F [HC-1119, 4-{3-[4-cyano-3-(trifluoromethyl)phenyl]-5,5-dimethyl-4-oxo-2-thio-1-imidazolidinyl}-2-fluoro-N-trideuteromethylbenzamide]															11.4 to 13.6	difficult to dissolve in water	480	18900
